# From patent US11110102B2, “Antifungal agents used in combination” (Scynexis, Inc., priority 2017, dated 2021)
# Key:
# [1] = system: NIH Aspergillus fumigatus isolate 4215; assay: Neutropenic rabbit model of invasive pulmonary aspergillosis (New Zealand White rabbits); format: in vivo; details: intravenously once daily
# Procedure: A study was conducted to evaluate the efficacy of the combination of SCY-078 with isavuconazole. Isavuconazole is a second generation antifungal triazole with activity against Aspergillus spp. As described above, invasive pulmonary aspergillosis is a life-threatening infection in immunosuppressed patients—particularly those with severe and prolonged neutropenia as a consequence of myelotoxic chemotherapy for the treatment of cancer, and those receiving immunosuppressive medication for rejection prophylaxis after organ transplantation or treatment of graft-versus-host disease (GVHD) after allogeneic bone marrow transplantation. A neutropenic rabbit model was selected for this in vivo evaluation to further illustrate the effect of the combination therapy of SCY-078 and an azole, in a relevant immunosuppressed population.
# New Zealand White rabbits weighing 2.5 to 3.5 kg (Covance Research Products, Inc., Denver, Pa.) were used in this study. Vascular access was established by the surgical placement of a silastic tunneled central venous catheter. Cytosine arabinoside (Cytosar-U) 525 mg/m^2 was administered intravenously on days 1 through 5, and on days 8, 9, 13 and 14 to produce profound and persistent neutropenia (a neutrophil concentration of <100 neutrophils/μL). Methylprednisolone (Solu-Medrol®, Pfizer, NY) 5 mg/kg was administered on days 1 through 3 to inhibit macrophage activity. […]
# Survival, pulmonary infarct, and galactomannan antigenemia (a serological marker of Aspergillus infection) were evaluated as indicators of treatment response. […] Serum galactomannan concentrations were determined by the Platelia® Aspergillus enzyme immunoassay (EIA) (Bio-Rad, Marnes-la-Coquette, France) one-stage immunoenzymatic sandwich microplate assay method. Enzyme immunoassay data were expressed as a serum GMI (galactomannan index) plotted over time.
# A. fumigatus MRL #28500 = assay: Checkerboard combination MIC testing; format: cell-based, Aspergillus fumigatus; details: read at 48 hours, duplicate
# Text: To determine the type of interaction between a representative compound of the enfumafungin derivatives (SCY-078) with several antifungal agents against Aspergillus fumigatus, the most frequent mold causing invasive disease in humans, the checkerboard method was used. The citrate salt of the compound was used in the studies.
# The checkerboard method involves the determination of percent growth inhibition of fungal cells in the presence of different combinations of drugs. Percent growth inhibition is calculated relative to growth in control wells which contain only cells and no drug. The assay was performed in 96-well microplates in which each row and each column contained twofold serial dilutions of drug A and drug B at concentrations ranging from 0 to slightly higher than their minimum inhibitory concentration (MIC). […] Then the inoculum was added to each well and the growth was evaluated after 48 hrs incubation to determine the first well in which growth was inhibited. The checkerboard-based determination of MICs of antifungal agents in combination was followed by further analysis employing the nonparametric fractional inhibitory concentration index (FICI), which is defined by the following equation:
# [formula] where MIC-A and MIC-B are the MICs of drugs A and B, respectively.
# Each drug was initially diluted in either sterile, distilled water or in DMSO, depending on whether the drug was water-soluble or water-insoluble, respectively.
# Stock solution of SCY-078 was prepared in DMSO at 200 times the concentration desired for use in the drug plates. Serial dilutions of stock solution were conducted in DMSO to obtain eleven 2-fold dilutions of the drug. The SCY-078 solution was then diluted to 4 times the desired concentration in RPMI-1640 medium so that the DMSO would not limit growth of the organism and so that the quantity of DMSO was the same for every dilution.
# Two 96-well plates are needed to conduct a combination test. Using a multichannel pipette, 50 μl of the lowest concentration of the first drug (Drug A) was added to each well of column 1 of the first plate (plate A) and column 1 of the second plate (plate B; rows A-D). Then, 50 μl of the next highest working dilution of Drug A was added to each well in column 2, continuing with dilutions until all columns 1-11 were filled. Column 12 was left empty. 50 μl of the lowest concentration of Drug B was added to each well in Row D of plate B. 50 μl of the next highest working dilution of Drug B was added to each well in row C of plate B, continuing with dilutions until all rows through row B of plate A were filled.
# Following the above, 100 μl of organism inoculum was added to every well. The plates were then incubated for 48 hours and visually read after incubation.
# The objective of the study was to determine whether the combination of SCY-078 with voriconazole, isavuconazole, or amphotericin B would result in a combined in vitro antifungal activity exceeding the sum of the activities of each drug alone. Combination MIC testing was performed using the checkerboard assay described above.
# A. fumigatus 28500 has a CYP51 mutation at F46Y.
# Initial MIC determinations of the individual antifungals were performed according to the Clinical and Laboratory Standards Institute (CLSI) M38-A2 standard for the susceptibility testing of filamentous fungi.
# Combination MIC testing was performed using a checkerboard test method according to the Center for Medical Mycology SOP A11.3. The checkerboard combination test method is a modification of the microdilution antifungal susceptibility test wherein two test compounds are combined in varying concentrations to determine whether they have synergistic, antagonistic, or no effect on the respective MIC values.
# Antifungals were serially diluted two-fold in RPMI medium to produce eleven concentrations each and were combined in wells of a microtiter plate. Two rows consisting of serial dilutions of each individual drug were included. […]
Structure (SMILES),"survival rate up to day 13 ([1]; ISA40: isavuconazole 40 mg/kg/day alone, 2 out of 6)","MIC per drug in Combination (A. fumigatus MRL #28500; A. fumigatus MRL 28500 (azole-resistant, CYP51 F46Y), SCY-078 combined with isavuconazole)","MIC (A. fumigatus MRL #28500; Aspergillus fumigatus, SCY078, 48 h, read-out: MIC per drug Alone, A. fumigatus MRL 28500 (azole-resistant, CYP51 F46Y), drug alone, SCY-078/isavuconazole test)","survival rate up to day 13 ([1]; SCY2.5: SCY-078 2.5 mg/kg/day alone, 1 out of 6)","survival until day 13 ([1]; SCY7.5: SCY-078 7.5 mg/kg/day alone, six per group)","MIC in Combination (A. fumigatus MRL #28500; A. fumigatus MRL 28500 (azole-resistant, CYP51 F46Y), SCY-078 combined with voriconazole)","MIC Alone (A. fumigatus MRL #28500; A. fumigatus MRL 28500 (azole-resistant, CYP51 F46Y), drug alone, SCY-078/voriconazole test)"
"C[C@@H](c1nc(-c2ccc(C#N)cc2)cs1)[C@](O)(Cn1cncn1)c1cc(F)ccc1F [Isavuconazole, isavuconazole]",32%,>8 µg/mL,> 8 µg/mL,–,–,–,–
"CC(C)[C@@H](C)[C@@]1(C)CC[C@]2(C)[C@H]3CC[C@@H]4[C@@]5(COC[C@@]4(C)[C@@H](OC[C@](C)(N)C(C)(C)C)[C@H](n4ncnc4-c4ccncc4)C5)C3=CC[C@@]2(C)[C@@H]1C(=O)O [SCY-078, (1S,4aR,6aS,7R,8R,10aR,10bR,12aR,14R,15R)-15-[[(2R)-2-amino-2,3,3-trimethylbutyl]oxy]-8-[(1R)-1,2-dimethylpropyl]-14-[5-(4-pyridinyl)-1H-1,2,4-triazol-1-yl]-1,6,6a,7,8,9,10,10a,10b,11,12,12a-dodecahydro-1,6a,8,10a-tetramethyl-4H-1,4a-propano-2H-phenanthro[1,2-c]pyran-7-carboxylic acid]",–,–,–,16%,no animals surviving until day 13,1 µg/mL,8 µg/mL
